# According to ChEMBL document CHEMBL1154226, “Synthesis and evaluation of inhibitors of cytochrome P450 3A (CYP3A) for pharmacokinetic enhancement of drugs” (Bioorg Med Chem Lett, 2009):
# How the values were obtained:
# Canis familiaris = species on record: Canis familiaris; conditions: dog, in vivo, po, 5 mg/kg
# in vivo = conditions: Beagle, dog, po, 5 mg/kg
# Liver microsomes = experiment: Intrinsic clearance in human liver microsomes; type: ADME, Microsome
# Cytochrome P450 3A4 = Cytochrome P450 3A4 (Homo sapiens, UniProt P08684); experiment: Inhibition of human recombinant CYP3A4-mediated oxidation of 7-benzyloxyquinoline
# Sequence of Cytochrome P450 3A4 (P08684 whole entry): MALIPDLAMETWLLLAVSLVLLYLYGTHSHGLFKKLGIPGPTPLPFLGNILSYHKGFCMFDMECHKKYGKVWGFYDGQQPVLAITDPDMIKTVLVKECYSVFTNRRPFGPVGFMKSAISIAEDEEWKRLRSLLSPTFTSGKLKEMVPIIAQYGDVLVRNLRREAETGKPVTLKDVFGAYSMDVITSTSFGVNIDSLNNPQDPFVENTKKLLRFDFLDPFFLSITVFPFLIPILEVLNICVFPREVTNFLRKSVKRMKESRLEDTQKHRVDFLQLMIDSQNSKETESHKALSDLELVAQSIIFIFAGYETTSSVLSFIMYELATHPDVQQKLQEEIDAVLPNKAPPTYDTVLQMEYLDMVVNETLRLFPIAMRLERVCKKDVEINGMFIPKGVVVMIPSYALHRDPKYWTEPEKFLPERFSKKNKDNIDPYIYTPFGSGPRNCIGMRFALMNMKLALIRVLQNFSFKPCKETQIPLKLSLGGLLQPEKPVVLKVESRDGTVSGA
AUC (Canis familiaris),Cmax (in vivo),IC50 (Liver microsomes),IC50 (Cytochrome P450 3A4),Compound
0.06 µg/mL,30 ng/mL,54 nM,,O=C(NC(Cc1ccccc1)CN(CC(Cc1ccccc1)NC(=O)OCc1cncs1)CC(Cc1ccccc1)NC(=O)OCc1cncs1)OCc1cncs1 (stereo not given)
,,,348 nM,CCN(C[C@H](Cc1ccccc1)NC(=O)OCc1cnc[nH]1)C[C@H](Cc1ccccc1)NC(=O)OCc1cnc[nH]1
,,,136 nM,CCN(C[C@H](CC(C)C)NC(=O)OCc1cncs1)C[C@H](CC(C)C)NC(=O)OCc1cncs1
,,,741 nM,CCN(C[C@H](Cc1ccccc1)NC(=O)OCc1cccs1)C[C@H](Cc1ccccc1)NC(=O)OCc1cccs1
1.38 µg/mL,610 ng/mL,,,CCN(C[C@H](Cc1ccccc1)NC(=O)OCc1cncs1)C[C@H](Cc1ccccc1)NC(=O)OCc1cncs1
,,,88 nM,CCN(CC(CC(=O)OC)NC(=O)OCc1cncs1)CC(CC(=O)OC)NC(=O)OCc1cncs1 (stereo not given)
,,,66 nM,CCN(CC(CC1CCCCC1)NC(=O)OCc1cncs1)CC(CC1CCCCC1)NC(=O)OCc1cncs1 (stereo not given)
,,,274 nM,CCN(C[C@H](Cc1ccccc1)NC(=O)OCc1cnco1)C[C@H](Cc1ccccc1)NC(=O)OCc1cnco1
,,,> 3000 nM,CCN(CCNC(=O)OCc1cncs1)CCNC(=O)OCc1cncs1
2.19 µg/mL,1320 ng/mL,40 nM,,CC(C)c1nc(CN(C)C(=O)N[C@H](C(=O)N[C@@H](Cc2ccccc2)C[C@H](O)[C@H](Cc2ccccc2)NC(=O)OCc2cncs2)C(C)C)cs1 [RITONAVIR]
